Among the data in ChEMBL document CHEMBL1133530, “Classification of multidrug-resistance reversal agents using structure-based descriptors and linear discriminant analysis” (2000) are RF values, retold here.

The structures appear in SMILES notation.

This assay is filed under the species Mus musculus. Kind of assay: Tested for the multidrug resistance reversal activity against P388 murine leukemia cell line, activity is expressed as RF(ED50 with no adriamycin (ADR)/ED50 with 200 nM ADR). It counts as functional.
`O=C(OCCN1CCN(CCOC(=O)C(c2ccccc2)c2ccccc2)CC1)C(c1ccccc1)c1ccccc1`: the RF amounted to 300.
`COc1ccc(CCNCC(O)COc2cccc(C)c2)cc1OC` (stereo not drawn) [BEVANTOLOL]: the RF was 50.
For `COc1ccc(CCC2NCCc3cc(OC)c(OC)cc32)cc1` (stereo not drawn), the RF amounted to 100.
Turning to `OCCN1CCN(CC/C=C2/c3ccccc3Sc3ccc(Cl)cc32)CC1` [ZUCLOPENTHIXOL], the RF is 15.
With `COc1ccc(CCN(C)CCCC(C#N)(c2ccc(OC)c(OC)c2)C(C)C)cc1OC` (stereo not drawn) [VERAPAMIL] the figure was 100; with `CCCCc1oc2ccccc2c1C(=O)c1cc(I)c(OCCN(CC)CC)c(I)c1` [AMIODARONE], 5.6.
The figure for `NCCc1ccccc1` [PHENETHYLAMINE] is 1; for `CCN(CC)CCOC1CCC2(C)C(=CCC3C4CCC(=O)C4(C)CCC32)C1` (stereo not drawn) it is 60.
